From patent publication US11155517B2, “4-substituted phenylamine derivatives and their use to protect crops by fighting undesired phytopathogenic micoorganisms” (PI INDUSTRIES LTD., priority 2016, dated 2021)

Key:
Type in all cases: cell-based
Pyricularia oryzae = assay: microbe, parasite or virus in culture; settings: 168 h, read-out: % control compared to the untreated check (radial growth)
Septoria lycopersici = Septoria lycopersici (leaf spot of tomato) in vitro test, radial growth on Potato Dextrose Agar; settings: 168 h, seven days, 25° C., read-out: % control compared to the untreated check (radial growth)
Rhizoctonia solani = Rhizoctonia solani (rice sheath blight/potato black scurf) in vitro test, radial growth on Potato Dextrose Agar; settings: 168 h, 300 ppm, seven days, 25° C., read-out: % control compared to the untreated check (radial growth)
Alternaria solani = Alternaria solani (early blight of tomato/potato) in vitro test, radial growth on Potato Dextrose Agar; settings: 168 h, 300 ppm, seven days, 25° C., read-out: % control compared to the untreated check (radial growth)
Colletotrichum capsici = Colletotrichum capsici (anthracnose) in vitro test, radial growth on Potato Dextrose Agar; settings: Colletotrichum truncatum, 168 h; 300 ppm; seven days, 25° C.; read-out: % control compared to the untreated check (radial growth)
Botrytis cinerea = Botrytis cinerea (gray mold) in vitro test, radial growth on Potato Dextrose Agar; settings: 168 h, 300 ppm, seven days, 22° C., read-out: % (control) compared to the untreated check (radial growth)

Compound | inhibition of growth at 300 ppm (Pyricularia oryzae) [%] | inhibition of growth at 300 ppm (Septoria lycopersici) [%] | inhibition of growth at 300 ppm (Rhizoctonia solani) [%] | inhibition of growth at 300 ppm (Alternaria solani) [%] | inhibition of growth at 300 ppm (Colletotrichum capsici) [%] | inhibition of growth at 300 ppm (Botrytis cinerea) [%]
CCN(C)C=Nc1cc(C(F)(F)F)c(Cc2cccc(Cl)c2)cc1F [Compound 229, N′-(4-(3-chlorobenzyl)-2-fluoro-5-(trifluoromethyl)phenyl)-N-ethyl-N-methylformimidamide] | > 75 | > 70 | > 80 | > 75 |  | 
CCN(C)C=Nc1cc(C)c(Cc2ccc(Cl)c(Cl)c2)cc1Cl [Compound 20, N′-(2-chloro-4-(3,4-dichlorobenzyl)-5-methylphenyl)-N-ethyl-N-methylformimidamide] | > 75 | > 70 | > 80 | > 75 | > 80 | 
CCN(C)C=Nc1cc(F)c(Cc2ccc(C)cc2)cc1F [Compound 245, N′-(2,5-difluoro-4-(4-methylbenzyl)phenyl)-N-ethyl-N-methylformimidamide] | > 75 | > 70 | > 80 | > 75 | > 80 | > 80
CCN(C)C=Nc1cc(C(F)(F)F)c(Cc2ccccc2C)cc1F [Compound 228, N-ethyl-N′-(2-fluoro-4-(2-methylbenzyl)-5-(trifluoromethyl)phenyl)-N-methylformimidamide] | > 75 | > 70 | > 80 | > 75 |  | 
CCN(C)C=Nc1ccc(Cc2ccccc2Cl)c2ccccc12 [Compound 270, N′-(4-(2-chlorobenzyl)naphthalen-1-yl)-N-ethyl-N-methylformimidamide] | > 75 | > 70 | > 80 | > 75 | > 80 | > 80
CCN(C)C=Nc1cc(F)c(Cc2cccc(C)c2)cc1F [Compound 244, N′-(2,5-difluoro-4-(3-methylbenzyl)phenyl)-N-ethyl-N-methylformimidamide] | > 75 | > 70 | > 80 | > 75 |  | > 80
CCN(C)C=Nc1ccc(Cc2ccccc2Cl)cc1 [Compound 164, N′-(4-(2-chlorobenzyl)phenyl)-N-ethyl-N-methylformimidamide] | > 75 | > 70 | > 80 | > 75 | > 80 | > 80
CCN(C)C=Nc1cc(C)c(Cc2cccc(F)c2)cc1S(C)(=O)=O [Compound 216, N-ethyl-N′-(4-(3-fluorobenzyl)-5-methyl-2-(methylsulfonyl)phenyl)-N-methylformimidamide] | > 75 | > 70 | > 80 | > 75 |  | 
CCN(C)C=Nc1cc(C)c(Cc2ccc(Cl)c(F)c2)cc1Cl [Compound 95, N′-(2-chloro-4-(4-chloro-3-fluorobenzyl)-5-methylphenyl)-N-ethyl-N-methylformimidamide] | > 75 |  | > 80 | > 75 | > 80 | > 80
CCN(C)C=Nc1cc(F)c(Cc2ccccc2C)cc1F [Compound 254, N′-(2,5-difluoro-4-(2-methylbenzyl)phenyl)-N-ethyl-N-methylformimidamide] | > 75 | > 70 | > 80 | > 75 | > 80 | > 80
CCN(C)C=Nc1cc(C)c(Cc2c(Cl)cccc2Cl)cc1Cl [Compound 195, N′-(2-chloro-4-(2,6-dichlorobenzyl)-5-methylphenyl)-N-ethyl-N-methylformimidamide] | > 75 | > 70 |  | > 75 | > 80 | > 80
CCN(C)C=Nc1cc(Cl)c(Cc2ccccc2Cl)cc1C [Compound 255, N′-(5-chloro-4-(2-chlorobenzyl)-2-methylphenyl)-N-ethyl-N-methylformimidamide] | > 75 | > 70 | > 80 | > 75 | > 80 | > 80
CCN(C)C=Nc1cc(C#N)c(Cc2ccccc2Cl)cc1C [Compound 246, N′-(4-(2-chlorobenzyl)-5-cyano-2-methylphenyl)-N-ethyl-N-methylformimidamide] | > 75 | > 70 | > 80 | > 75 | > 80 | > 80
CCN(C)C=Nc1cc(C)c(Cc2cccc(F)c2Cl)cc1C [Compound 131, N′-(4-(2-chloro-3-fluorobenzyl)-2,5-dimethylphenyl)-N-ethyl-N-methylformimidamide] | > 75 | > 70 | > 80 | > 75 | > 80 | > 80
CCN(C)C=Nc1cc(C)c(Cc2cc(C(F)(F)F)ccc2Cl)cc1Cl [Compound 168, N′-(2-chloro-4-(2-chloro-5-(trifluoromethyl)benzyl)-5-methylphenyl)-N-ethyl-N-methylformimidamide] | > 75 | > 70 | > 80 | > 75 | > 80 | > 80
Cc1cc(N=CN2CCSCC2)c(C)cc1Cc1ccccc1Cl [Compound 86, N-(4-(2-chlorobenzyl)-2,5-dimethylphenyl)-1-thiomorpholinomethanimine] | > 75 | > 70 | > 80 | > 75 | > 80 | > 80
CCN(C)C=Nc1cc(F)c(Cc2cccc(Cl)c2)cc1F [Compound 243, N′-(4-(3-chlorobenzyl)-2,5-difluorophenyl)-N-ethyl-N-methylformimidamide] | > 75 | > 70 | > 80 | > 75 | > 80 | 
CCN(C)C=Nc1ccc(Cc2ccccc2F)cc1 [Compound 163, N-ethyl-N′(4-(2-fluorobenzyl)phenyl)-N-methylformimidamide] | > 75 | > 70 | > 80 | > 75 | > 80 | > 80
CCN(C)C=Nc1cc(C#N)c(Cc2ccccc2C)cc1C [Compound 248, N′-(5-cyano-2-methyl-4-(2-methylbenzyl)phenyl)-N-ethyl-N-methylformimidamide] | > 75 | > 70 | > 80 | > 75 |  | > 80
Cc1cc(N=CN2CCOCC2)c(C)cc1Cc1ccc(F)c(Cl)c1 [Compound 34, N-(4-(3-chloro-4-fluorobenzyl)-2,5-dimethylphenyl)-1-morpholinomethanimine] | > 75 | > 70 | > 80 | > 75 | > 80 | 
CCN(C)C=Nc1cc(C)c(Cc2cc(C(F)(F)F)cc(C(F)(F)F)c2)cc1C [Compound 106, N′-(4-(3,5-bis(trifluoromethyl)benzyl)-2,5-dimethylphenyl)-N-ethyl-N-methylformimidamide] | > 75 | > 70 | > 80 | > 75 | > 80 | > 80
CCN(C)C=Nc1cc(C)c(Cc2cccc(Cl)c2F)cc1Cl [Compound 123, N′-(2-chloro-4-(3-chloro-2-fluorobenzyl)-5-methylphenyl)-N-ethyl-N-methylformimidamide] | > 75 |  | > 80 | > 75 | > 80 | > 80
CCN(C)C=Nc1cc(C)c(Cc2cc(C)cc(F)c2)cc1Cl [Compound 140, N′-(2-chloro-4-(3-fluoro-5-methylbenzyl)-5-methylphenyl)-N-ethyl-N-methylformimidamide] | > 75 |  | > 80 | > 75 | > 80 | > 80
Cc1cc(N(C#N)C=N)c(C)cc1Cc1ccccc1F [Compound 64, N-cyano-N-(4-(2-fluorobenzyl)-2,5-dimethylphenyl)formimidamide] | > 75 | > 70 |  |  |  | 
Cc1cc(N=CN2CCSCC2)c(C)cc1Cc1ccccc1F [Compound 85, N-(4-(2-fluorobenzyl)-2,5-dimethylphenyl)-1-thiomorpholinomethanimine] | > 75 |  | > 80 | > 75 | > 80 | > 80
